Measurements reported in PubChem BioAssay (NCI).
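Five concentrations, 48 hours, 96-well plates. Here, GI50 denotes the concentration required for 50% inhibition of growth. The concentration for full growth arrest is given as TGI.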

Legend:
Assay in all cases: growth of human tumour cells (NCI), 48 h
OVCAR-8 ovarian = system: OVCAR-8 ovarian
KM12 colon = system: KM12 colon
OVCAR-3 ovarian = system: OVCAR-3 ovarian
K-562 leukemia = system: K-562 leukemia
SK-MEL-5 melanoma = system: SK-MEL-5 melanoma
UACC-62 melanoma = system: UACC-62 melanoma
EKVX NSCLC = system: EKVX NSCLC
IGROV1 ovarian = system: IGROV1 ovarian
SR leukemia = system: SR leukemia
DU-145 prostate = system: DU-145 prostate
A498 renal = system: A498 renal
SF-268 CNS = system: SF-268 CNS
T-47D breast = system: T-47D breast
OVCAR-4 ovarian = system: OVCAR-4 ovarian
U251 CNS = system: U251 CNS
PC-3 prostate = system: PC-3 prostate
NCI-H226 lung = system: NCI-H226 lung
SNB-19 CNS = system: SNB-19 CNS
MALME-3M melanoma = system: MALME-3M melanoma
SF-295 CNS = system: SF-295 CNS
CCRF-CEM leukemia = system: CCRF-CEM leukemia
SNB-75 CNS = system: SNB-75 CNS
BT-549 breast = system: BT-549 breast
MCF7 breast = system: MCF7 breast
HCC-2998 colon = system: HCC-2998 colon
COLO 205 colon = system: COLO 205 colon
UO-31 renal = system: UO-31 renal
M14 melanoma = system: M14 melanoma
SN12C renal = system: SN12C renal
786-0 renal = system: 786-0 renal
NCI-H460 lung = system: NCI-H460 lung
UACC-257 melanoma = system: UACC-257 melanoma
OVCAR-5 ovarian = system: OVCAR-5 ovarian
LOX IMVI melanoma = system: LOX IMVI melanoma
SK-MEL-2 melanoma = system: SK-MEL-2 melanoma
HCT-15 colon = system: HCT-15 colon
ACHN renal = system: ACHN renal
SK-MEL-28 melanoma = system: SK-MEL-28 melanoma
SW-620 colon = system: SW-620 colon
HOP-62 NSCLC = system: HOP-62 NSCLC
TK-10 renal = system: TK-10 renal
HS 578T breast = system: HS 578T breast
MDA-MB-435 = system: MDA-MB-435
A549 NSCLC = system: A549 NSCLC
MDA-MB-231 breast = system: MDA-MB-231 breast
RXF 393 renal = system: RXF 393 renal
HT29 colon = system: HT29 colon
NCI/ADR-RES ovarian = system: NCI/ADR-RES ovarian
SK-OV-3 ovarian = system: SK-OV-3 ovarian
MOLT-4 leukemia = system: MOLT-4 leukemia
CAKI-1 renal = system: CAKI-1 renal
HCT-116 colon = system: HCT-116 colon
NCI-H522 lung = system: NCI-H522 lung
RPMI-8226 leukemia = system: RPMI-8226 leukemia
HOP-92 NSCLC = system: HOP-92 NSCLC
NCI-H23 lung = system: NCI-H23 lung
SF-539 CNS = system: SF-539 CNS

Compound: NC(=O)NNc1nc(-c2ccccc2)cs1
- TGI (OVCAR-8 ovarian): > 100 µM
- TGI (KM12 colon): > 100 µM
- TGI (OVCAR-3 ovarian): > 100 µM
- TGI (K-562 leukemia): > 100 µM
- TGI (SK-MEL-5 melanoma): > 100 µM
- TGI (UACC-62 melanoma): > 100 µM
- TGI (EKVX NSCLC): > 100 µM
- TGI (IGROV1 ovarian): > 100 µM
- TGI (SR leukemia): > 100 µM
- TGI (DU-145 prostate): > 100 µM
- TGI (A498 renal): > 100 µM
- TGI (SF-268 CNS): > 100 µM
- TGI (T-47D breast): > 100 µM
- TGI (OVCAR-4 ovarian): > 100 µM
- TGI (U251 CNS): > 100 µM
- TGI (PC-3 prostate): > 100 µM
- TGI (NCI-H226 lung): > 100 µM
- TGI (SNB-19 CNS): > 100 µM
- TGI (MALME-3M melanoma): > 100 µM
- TGI (SF-295 CNS): > 100 µM
- TGI (CCRF-CEM leukemia): > 100 µM
- TGI (SNB-75 CNS): > 100 µM
- TGI (BT-549 breast): > 100 µM
- TGI (MCF7 breast): > 100 µM
- TGI (HCC-2998 colon): > 100 µM
- TGI (COLO 205 colon): > 100 µM
- TGI (UO-31 renal): > 100 µM
- TGI (M14 melanoma): > 100 µM
- TGI (SN12C renal): > 100 µM
- TGI (786-0 renal): > 100 µM
- TGI (NCI-H460 lung): > 100 µM
- TGI (UACC-257 melanoma): > 100 µM
- TGI (OVCAR-5 ovarian): > 100 µM
- TGI (LOX IMVI melanoma): > 100 µM
- TGI (SK-MEL-2 melanoma): > 100 µM
- TGI (HCT-15 colon): > 100 µM
- TGI (ACHN renal): > 100 µM
- TGI (SK-MEL-28 melanoma): > 100 µM
- TGI (SW-620 colon): > 100 µM
- TGI (HOP-62 NSCLC): > 100 µM
- TGI (TK-10 renal): > 100 µM
- TGI (HS 578T breast): > 100 µM
- TGI (MDA-MB-435): > 100 µM
- TGI (A549 NSCLC): > 100 µM
- TGI (MDA-MB-231 breast): > 100 µM
- TGI (RXF 393 renal): > 100 µM
- TGI (HT29 colon): > 100 µM
- TGI (NCI/ADR-RES ovarian): > 100 µM
- TGI (SK-OV-3 ovarian): > 100 µM
- TGI (MOLT-4 leukemia): > 100 µM
- TGI (CAKI-1 renal): > 100 µM
- TGI (HCT-116 colon): > 100 µM
- TGI (NCI-H522 lung): > 100 µM
- TGI (RPMI-8226 leukemia): > 100 µM

Compound: CC1NC(=O)C2Cc3ccc(O)c(c3)Oc3ccc(cc3)C(O)C(C(=O)N2C)N(C)C(=O)C(C)NC(=O)C(Cc2ccc(O)cc2)N(C)C(=O)C(C)NC1=O (stereo not given)
- TGI (HOP-92 NSCLC): > 100 µM
- TGI (BT-549 breast): > 100 µM
- TGI (NCI-H23 lung): > 100 µM
- TGI (UACC-257 melanoma): > 100 µM

Compound: Cc1cc2c(cc1Cl)SC1=NN(C)C(C)N1S2(=O)=O (stereo not given)
- GI50 (OVCAR-8 ovarian): > 100 µM
- TGI (OVCAR-8 ovarian): > 100 µM
- GI50 (KM12 colon): > 100 µM
- TGI (KM12 colon): > 100 µM
- GI50 (OVCAR-3 ovarian): > 100 µM
- TGI (OVCAR-3 ovarian): > 100 µM
- GI50 (K-562 leukemia): > 100 µM
- TGI (K-562 leukemia): > 100 µM
- GI50 (SK-MEL-5 melanoma): > 100 µM
- TGI (SK-MEL-5 melanoma): > 100 µM
- GI50 (UACC-62 melanoma): > 100 µM
- TGI (UACC-62 melanoma): > 100 µM
- GI50 (EKVX NSCLC): > 100 µM
- TGI (EKVX NSCLC): > 100 µM
- GI50 (IGROV1 ovarian): > 100 µM
- TGI (IGROV1 ovarian): > 100 µM
- GI50 (SR leukemia): 39.2 µM
- TGI (SR leukemia): > 100 µM
- GI50 (HOP-92 NSCLC): 19.3 µM
- TGI (HOP-92 NSCLC): 80.9 µM
- GI50 (DU-145 prostate): > 100 µM
- TGI (DU-145 prostate): > 100 µM
- GI50 (A498 renal): > 100 µM
- TGI (A498 renal): > 100 µM
- GI50 (SF-268 CNS): 98.1 µM
- TGI (SF-268 CNS): > 100 µM
- GI50 (T-47D breast): 95.8 µM
- TGI (T-47D breast): > 100 µM
- GI50 (OVCAR-4 ovarian): 74.8 µM
- TGI (OVCAR-4 ovarian): > 100 µM
- GI50 (SF-539 CNS): > 100 µM
- TGI (SF-539 CNS): > 100 µM
- GI50 (U251 CNS): > 100 µM
- TGI (U251 CNS): > 100 µM
- GI50 (PC-3 prostate): > 100 µM
- TGI (PC-3 prostate): > 100 µM
- GI50 (NCI-H226 lung): > 100 µM
- TGI (NCI-H226 lung): > 100 µM
- GI50 (SNB-19 CNS): > 100 µM
- TGI (SNB-19 CNS): > 100 µM
- GI50 (MALME-3M melanoma): > 100 µM
- TGI (MALME-3M melanoma): > 100 µM
- GI50 (SF-295 CNS): > 100 µM
- TGI (SF-295 CNS): > 100 µM
- GI50 (CCRF-CEM leukemia): > 100 µM
- TGI (CCRF-CEM leukemia): > 100 µM
- GI50 (SNB-75 CNS): 35.3 µM
- TGI (SNB-75 CNS): > 100 µM
- GI50 (BT-549 breast): 96.5 µM
- TGI (BT-549 breast): > 100 µM
- GI50 (MCF7 breast): 36 µM
- TGI (MCF7 breast): > 100 µM
- GI50 (HCC-2998 colon): > 100 µM
- TGI (HCC-2998 colon): > 100 µM
- GI50 (NCI-H23 lung): > 100 µM
- TGI (NCI-H23 lung): > 100 µM
- GI50 (COLO 205 colon): > 100 µM
- TGI (COLO 205 colon): > 100 µM
- GI50 (UO-31 renal): > 100 µM
- TGI (UO-31 renal): > 100 µM
- GI50 (M14 melanoma): > 100 µM
- TGI (M14 melanoma): > 100 µM
- GI50 (SN12C renal): > 100 µM
- TGI (SN12C renal): > 100 µM
- GI50 (786-0 renal): > 100 µM
- TGI (786-0 renal): > 100 µM
- GI50 (NCI-H460 lung): > 100 µM
- TGI (NCI-H460 lung): > 100 µM
- GI50 (UACC-257 melanoma): > 100 µM
- TGI (UACC-257 melanoma): > 100 µM
- GI50 (OVCAR-5 ovarian): > 100 µM
- TGI (OVCAR-5 ovarian): > 100 µM
- GI50 (LOX IMVI melanoma): > 100 µM
- TGI (LOX IMVI melanoma): > 100 µM
- GI50 (SK-MEL-2 melanoma): > 100 µM
- TGI (SK-MEL-2 melanoma): > 100 µM
- GI50 (HCT-15 colon): > 100 µM
- TGI (HCT-15 colon): > 100 µM
- GI50 (ACHN renal): > 100 µM
- TGI (ACHN renal): > 100 µM
- GI50 (SK-MEL-28 melanoma): > 100 µM
- TGI (SK-MEL-28 melanoma): > 100 µM
- GI50 (SW-620 colon): > 100 µM
- TGI (SW-620 colon): > 100 µM
- GI50 (HOP-62 NSCLC): > 100 µM
- TGI (HOP-62 NSCLC): > 100 µM
- GI50 (TK-10 renal): > 100 µM
- TGI (TK-10 renal): > 100 µM
- GI50 (HS 578T breast): > 100 µM
- TGI (HS 578T breast): > 100 µM
- GI50 (MDA-MB-435): > 100 µM
- TGI (MDA-MB-435): > 100 µM
- GI50 (A549 NSCLC): > 100 µM
- TGI (A549 NSCLC): > 100 µM
- GI50 (MDA-MB-231 breast): > 100 µM
- TGI (MDA-MB-231 breast): > 100 µM
- GI50 (HT29 colon): > 100 µM
- TGI (HT29 colon): > 100 µM
- GI50 (NCI/ADR-RES ovarian): > 100 µM
- TGI (NCI/ADR-RES ovarian): > 100 µM
- GI50 (SK-OV-3 ovarian): > 100 µM
- TGI (SK-OV-3 ovarian): > 100 µM
- GI50 (MOLT-4 leukemia): 71 µM
- TGI (MOLT-4 leukemia): > 100 µM
- GI50 (CAKI-1 renal): > 100 µM
- TGI (CAKI-1 renal): > 100 µM
- GI50 (HCT-116 colon): > 100 µM
- TGI (HCT-116 colon): > 100 µM
- GI50 (NCI-H522 lung): 88.8 µM
- TGI (NCI-H522 lung): > 100 µM
- GI50 (RPMI-8226 leukemia): > 100 µM
- TGI (RPMI-8226 leukemia): > 100 µM
